Key:
chickweed = test: Test C postemergence; type: in vivo, Stellaria media
Summary of the method: (§1)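 In this greenhouse assay, seeded soil (loam plus sand) or emerged seedlings in peat-vermiculite medium were treated with formulated compound. Roughly two weeks later (13–15 days), each species was scored visually relative to controls, from 0 for no effect to 100 for complete control.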

pigweed = test: Test C postemergence; type: in vivo, Amaranthus retroflexus
Summary of the method: as §1

galium = test: Test C postemergence; type: in vivo, Galium aparine
Summary of the method: as §1

waterhemp = test: Test C postemergence; type: in vivo, Amaranthus rudis
Summary of the method: as §1

johnsongrass = test: Test C postemergence; type: in vivo, Sorghum halepense
Summary of the method: as §1

wheat = test: Test C postemergence; type: in vivo, Triticum aestivum
Summary of the method: as §1

soybean = test: Test C postemergence; type: in vivo, Glycine max
Summary of the method: as §1

oilseed rape = test: Test C postemergence; type: in vivo, Brassica napus
Summary of the method: as §1

ryegrass, Italian = test: Test C postemergence; type: in vivo, Lolium multiflorum
Summary of the method: as §1

nutsedge, yellow = test: Test C postemergence; type: in vivo, Cyperus esculentus
Summary of the method: as §1

blackgrass = test: Test C postemergence; type: in vivo, Alopecurus myosuroides
Summary of the method: as §1

velvetleaf = test: Test C postemergence; type: in vivo, Abutilon theophrasti
Summary of the method: as §1

morningglory = test: Test C postemergence; type: in vivo, Ipomoea coccinea
Summary of the method: as §1

lambsquarters [1] = test: Test C postemergence; type: in vivo, Chenopodium album
Summary of the method: as §1

kochia = test: Test C postemergence; type: in vivo, Kochia scoparia
Summary of the method: as §1

foxtail, giant = test: Test C postemergence; type: in vivo, Setaria faberii
Summary of the method: as §1

lambsquarters [2] = test: Test C preemergence; type: in vivo, Chenopodium album; settings: for Lambsquarters plant response rating: preemergence
Summary of the method: as §1

corn = test: Test C postemergence; type: in vivo, Zea mays
Summary of the method: as §1

[3] = Postemergence, 31 g ai/ha, visually evaluated after 13 to 15 days
[4] = postemergence, 62 g ai/ha, scale 0 to 100
[5] = postemergence, 250 g ai/ha, scale 0 to 100 (0 no effect, 100 complete control)
[6] = postemergence, 125 g ai/ha, scale 0 to 100, 0 no effect, 100 complete control

## CCCc1cc(C(=O)NCC(F)(F)F)nn1Cc1ccnc(C(F)(F)F)c1 [Compound 105]
chickweed; [3]
  Plant response rating (scale of 0 to 100 where 0 is no effect and 100 is complete control), Chickweed: 90
chickweed; [4]
  Chickweed plant response rating: 90
chickweed; [5]
  Plant response rating, Chickweed: 95
chickweed; [6]
  Plant response rating, Chickweed: 95
pigweed; [3]
  Plant response rating (scale of 0 to 100 where 0 is no effect and 100 is complete control), Pigweed: 75
pigweed; [4]
  Pigweed plant response rating: 85
pigweed; [5]
  Plant response rating, Pigweed: 90
pigweed; [6]
  Plant response rating, Pigweed: 85
galium; [3]
  Plant response rating (scale of 0 to 100 where 0 is no effect and 100 is complete control), Galium: 55
galium; [4]
  Galium plant response rating: 85
galium; [5]
  Plant response rating, Galium: 90
galium; [6]
  Plant response rating, Galium: 85
waterhemp; [3]
  Plant response rating (scale of 0 to 100 where 0 is no effect and 100 is complete control), Waterhemp: 65
waterhemp; [4]
  Waterhemp plant response rating: 75
waterhemp; [5]
  Plant response rating, Waterhemp: 85
waterhemp; [6]
  Plant response rating, Waterhemp: 75
johnsongrass; [3]
  Plant response rating (scale of 0 to 100 where 0 is no effect and 100 is complete control), Johnsongrass: 5
johnsongrass; [4]
  Johnsongrass plant response rating: 35
johnsongrass; [5]
  Plant response rating, Johnsongrass: 75
johnsongrass; [6]
  Plant response rating, Johnsongrass: 45
wheat; [3]
  Plant response rating (scale of 0 to 100 where 0 is no effect and 100 is complete control), Wheat: 5
wheat; [4]
  Wheat plant response rating: 5
wheat; [5]
  Plant response rating, Wheat: 45
wheat; [6]
  Plant response rating, Wheat: 10
soybean; [3]
  Plant response rating (scale of 0 to 100 where 0 is no effect and 100 is complete control), Soybean: 80
soybean; [4]
  Soybean plant response rating: 80
soybean; [5]
  Plant response rating, Soybean: 95
soybean; [6]
  Plant response rating, Soybean: 95
Oilseed rape; [3]
  Plant response rating (scale of 0 to 100 where 0 is no effect and 100 is complete control), Oilseed Rape: 45
Oilseed rape; [4]
  Oilseed Rape plant response rating: 50
Oilseed rape; [5]
  Plant response rating, Oilseed Rape: 90
Oilseed rape; [6]
  Plant response rating, Oilseed Rape: 85
ryegrass, Italian; [3]
  Plant response rating (scale of 0 to 100 where 0 is no effect and 100 is complete control), Ryegrass, Italian: 5
ryegrass, Italian; [4]
  Ryegrass, Italian plant response rating: 10
ryegrass, Italian; [5]
  Plant response rating, Ryegrass, Italian: 45
ryegrass, Italian; [6]
  Plant response rating, Ryegrass, Italian: 30
nutsedge, yellow; [3]
  Plant response rating (scale of 0 to 100 where 0 is no effect and 100 is complete control), Nutsedge, Yellow: 5
nutsedge, yellow; [4]
  Nutsedge, Yellow plant response rating: 5
nutsedge, yellow; [5]
  Plant response rating, Nutsedge, Yellow: 40
nutsedge, yellow; [6]
  Plant response rating, Nutsedge, Yellow: 20
blackgrass; [3]
  Plant response rating (scale of 0 to 100 where 0 is no effect and 100 is complete control), Blackgrass: 10
blackgrass; [4]
  Blackgrass plant response rating: 30
blackgrass; [5]
  Plant response rating, Blackgrass: 60
blackgrass; [6]
  Plant response rating, Blackgrass: 35
velvetleaf; [3]
  Plant response rating (scale of 0 to 100 where 0 is no effect and 100 is complete control), Velvetleaf: 40
velvetleaf; [4]
  Velvetleaf plant response rating: 55
velvetleaf; [5]
  Plant response rating, Velvetleaf: 75
velvetleaf; [6]
  Plant response rating, Velvetleaf: 70
morningglory; [3]
  Plant response rating (scale of 0 to 100 where 0 is no effect and 100 is complete control), Morningglory: 80
morningglory; [4]
  Morningglory plant response rating: 80
morningglory; [5]
  Plant response rating, Morningglory: 95
morningglory; [6]
  Plant response rating, Morningglory: 85
Lambsquarters [1]; [3]
  Plant response rating (scale of 0 to 100 where 0 is no effect and 100 is complete control), Lambsquarters: 75
Lambsquarters [1]; [4]
  Lambsquarters plant response rating: 95
Lambsquarters [1]; [5]
  Plant response rating, Lambsquarters: 98
Lambsquarters [1]; [6]
  Plant response rating, Lambsquarters: 95
kochia; [3]
  Plant response rating (scale of 0 to 100 where 0 is no effect and 100 is complete control), Kochia: 90
kochia; [4]
  Kochia plant response rating: 90
kochia; [5]
  Plant response rating, Kochia: 95
kochia; [6]
  Plant response rating, Kochia: 90
foxtail, giant; [3]
  Plant response rating (scale of 0 to 100 where 0 is no effect and 100 is complete control), Foxtail, Giant: 15
foxtail, giant; [4]
  Foxtail, Giant plant response rating: 40
foxtail, giant; [5]
  Plant response rating, Foxtail, Giant: 85
foxtail, giant; [6]
  Plant response rating, Foxtail, Giant: 75
Lambsquarters [2]; Preemergence, 250 g ai/ha
  Plant response rating (scale of 0 to 100), Lambsquarters: 100
Lambsquarters [2]; 31 g ai/ha, visual rating, scale 0 to 100 (0 no effect, 100 complete control), 13 to 15 days
  Lambsquarters plant response rating: 85
Lambsquarters [2]; 62 g ai/ha, scale 0 to 100 (0 no effect, 100 complete control), 13 to 15 days
  Lambsquarters plant response rating: 100
Lambsquarters [2]; 125 g ai/ha, scale 0 to 100, 0 is no effect, 100 is complete control
  Lambsquarters plant response rating: 100
corn; [3]
  Plant response rating (scale of 0 to 100 where 0 is no effect and 100 is complete control), Corn: 15
corn; [4]
  Corn plant response rating: 40
corn; [5]
  Plant response rating, Corn: 85
corn; [6]
  Plant response rating, Corn: 60
